Common to all, as to test: NCI tumour cell line growth inhibition, 48 h
Test [1] deals with 786-0 renal.
The subject of test [2] is U251 CNS.
The test system of test [3] is UACC-257 melanoma.
Test [4] concerns NCI-H460 lung.
Test [5] relates to HCT-15 colon.
Test [6] deals with HCC-2998 colon.
Test [7] has as its system RXF 393 renal.
For test [8], the system named is OVCAR-5 ovarian.
Test [9] relates to SF-539 CNS.
Test [10] deals with MOLT-4 leukemia.

“And” between values parts separate entries of the source, which are not always exact repeats. Equal values may be shown once.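 Five concentrations, 48 hours, 96-well plates. Here, GI50 denotes the concentration required for 50% inhibition of growth. Definition used: TGI = concentration required for complete inhibition of growth.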

With `O=C(NC(Cc1ccccc1)C(=O)CCl)OCc1ccccc1` (stereo not drawn), the TGI is 14.7 µM and 16.6 µM in [1]; 19.6 µM and 22.8 µM in test [2]; 26.7 µM and 26.2 µM in [3]; 17.4 µM and 19.8 µM in test [4]; 8.56 µM and 17.8 µM in test [5]; 28.8 µM and 32.2 µM in test [6]. Further, the TGI is 14.2 µM in [7]; 18.5 µM and 24.2 µM in test [8]; 10.3 µM and 16.8 µM in [9]; 25.4 µM in test [10]. Besides, the GI50 was 6.97 µM in [2]; 4.34 µM in test [4]; 2.32 µM in test [5]; 12.3 µM in [6]; 3.62 µM in test [7]; 5.64 µM in [8]. Besides, the GI50 in test [9] is 3 µM; in test [10], 3.56 µM.
Regarding `[Au+].c1c[n-]cn1.c1ccc([PH+](c2ccccc2)c2ccccc2)cc1`, the GI50 in test [1] is 1.66 µM; in [2], 3.77 µM; in test [3] it was 5.04 µM; in test [4], 15.3 µM; in [5] it was 3.42 µM; in test [6], 13.8 µM. Further, the GI50 in test [7] was 1.3 µM; in test [8], 20.9 µM; in test [9] it was 4.38 µM; in [10] it was 2.07 µM. The TGI was 3.04 µM in [1]; 26.2 µM in test [2]; 15.8 µM in test [3]; 59.9 µM in test [4]; 15.8 µM in test [5]; 30.5 µM in test [6]. Besides, the TGI turned out to be 2.66 µM in [7], 42.3 µM in test [8], 10.8 µM in test [9] and 5.15 µM in test [10].
As for `O=C1Nc2c(ccc(Cl)c2Cl)/C1=C\c1cc(C(F)(F)F)cc(C(F)(F)F)c1`, the GI50 was 4.29 µM in [1]; 1.15 µM in test [2]; 6.62 µM in test [3]; 2.45 µM in test [4]; 1.4 µM in test [5]; 7.71 µM in test [6]. Also, the GI50 was 1.21 µM in [7], 4.26 µM in [8], 6.95 µM in test [9] and 2.09 µM in test [10]. Further, the TGI in test [1] was 10.4 µM; in test [2], 3.22 µM; in test [3] it was 13.7 µM; in test [4], 7.68 µM; in test [5], 6.07 µM; in test [6] it was 14.9 µM. Also, the TGI in [7] was 2.94 µM; in test [8], 11.4 µM; in [9] it was 13.8 µM; in [10], 4.68 µM.
Take `O=C(Nc1nc(-c2ccccc2Cl)cs1)c1cc(-c2ccc(Cl)cc2)nc2ccc(Cl)cc12`: the GI50 in test [1] was 2.84 µM; in test [2], 3.42 µM; in test [3] it was 14.9 µM; in test [4], 31.8 µM; in test [5], 1.93 µM; in test [6], 5.61 µM. Moreover, the GI50 in [7] is 10.3 µM; in test [8] it was 23.1 µM; in [9], 2.12 µM; in [10], 3.42 µM. Also, the TGI is 20 µM in test [1]; 28.6 µM in test [2]; greater than 100 µM in test [3]; greater than 100 µM in test [4]; 40 µM in test [5]; greater than 100 µM in test [6]. Also, the TGI is greater than 100 µM in [7], greater than 100 µM in [8], 8.31 µM in test [9] and greater than 100 µM in [10].
Consider `COc1c(OC)c(OC)c(-c2cc(=O)c3c(OC)c(OC)c(OC)c(OC)c3o2)c(OC)c1OC`, for which the TGI in test [1] was 37 µM; in [2], greater than 100 µM; in test [3], greater than 100 µM; in test [4], greater than 100 µM; in test [5], greater than 100 µM; in test [6], greater than 100 µM. Besides, the TGI in test [7] is 81.2 µM; in test [8], greater than 100 µM; in test [9] it was greater than 100 µM; in [10], greater than 100 µM.
In the case of `COc1ccc(Nc2ncccc2C(=O)NCc2cn(Cc3cccc(Oc4ccccc4)c3)nn2)c(OC)c1`, the GI50 is 3.92 µM in test [1]; 3.19 µM in [2]; 13.4 µM in [3]; 3.19 µM in test [4]; 1.68 µM in test [5]; 2.64 µM in test [6]. The GI50 in test [7] is 1.91 µM; in test [8], 6.72 µM; in test [9], 2.43 µM; in [10], 4.02 µM. In addition, the TGI in test [1] is greater than 100 µM; in test [2], greater than 100 µM; in [3] it was greater than 100 µM; in [4], greater than 100 µM; in test [5], greater than 100 µM; in test [6], greater than 29 µM. Besides, the TGI was greater than 74.2 µM in test [7], greater than 100 µM in [8], 19.2 µM in test [9] and greater than 100 µM in test [10].
Consider `CCC1OC(=O)CC(O)C(C)C(OC2OC(C)CC(N(C)C)C2O)C(CC=O)CC(C)C(=O)/C=C/C2(C)OC2C1C` (stereo not drawn), for which the TGI in test [1] is 40.9 µM; in [2], 30.8 µM; in [3] it was greater than 100 µM; in test [4] it was greater than 100 µM; in test [5], 39.1 µM; in test [6] it was greater than 100 µM. Also, the TGI in test [7] was 56.1 µM; in test [8], greater than 100 µM; in test [9], 29.6 µM; in test [10], 43.4 µM.
For the compound `CCN(CC)CCNC(=O)C(Cl)=C1C(Cl)=C(Cl)C(Cl)=C1Cl`, the GI50 in [1] is 5.07 µM; in test [2], 2.85 µM; in [3], 2.49 µM; in [4], 2.71 µM; in test [5] it was 2.78 µM; in test [6] it was 8.08 µM. Besides, the figures for the GI50 in test [7], in test [8] and in [9] were 3.76 µM, 4.82 µM and 4.33 µM, respectively. Also, the TGI was 41.7 µM in test [1]; 10.2 µM in [2]; 11.7 µM in [3]; 11.1 µM in [4]; 12.7 µM in [5]; 22.8 µM in test [6]. The TGI in [7] came to 15.9 µM; in test [8], 27.8 µM; in test [9], 53.1 µM.
`Cc1nc2cc(Nc3nc(Nc4ccc(F)cc4)nc(N4CCCC4)n3)ccc2n1Cc1ccccc1`: the GI50 in [1] is 1.85 µM; in test [2] it was 1.66 µM; in test [3], 2.32 µM; in test [4], 1.82 µM; in test [5] it was 1.88 µM; in [6] it was 1.93 µM. For the same compound, the GI50 in test [7] is 1.55 µM; in test [8], 1.72 µM; in test [9], 1.79 µM; in test [10], 2.52 µM. Moreover, the TGI in [1] worked out at 3.46 µM; in [2], 3.36 µM; in test [3] it was 5.88 µM; in test [4] it was 3.44 µM; in test [5] it was 3.99 µM; in test [6] it was 3.73 µM. Besides, the TGI came out at 3.09 µM in [7], 3.42 µM in [8], 3.32 µM in test [9] and 5.68 µM in [10].
Take `O=C1CCCCCCCCCCOC(=O)CCCCCCCCCCO1`: the TGI in test [1], in [2], in test [3], in test [4], in [5] and in test [6] was greater than 100 µM each time. Moreover, the TGI in [7], in test [8] and in test [9] was greater than 100 µM throughout.
In the case of `C=C(C)[C@@H]1CC[C@]2(C(=O)N3CCN(C)CC3)CC[C@]3(C)[C@H](CC[C@@H]4[C@@]5(C)CC[C@H](O)C(C)(C)[C@@H]5CC[C@]43C)[C@@H]12`, the GI50 in test [1] is 1.49 µM; in test [3], 1.81 µM; in [4], 2.02 µM; in [5], 1.69 µM; in test [6], 1.91 µM; in test [7], 1.53 µM. Besides, the figures for the GI50 in [8] and in test [9] were 1.75 µM and 1.69 µM, respectively. For the same compound, the TGI in test [1] was determined as 3.17 µM; in [3], 3.57 µM; in test [4], 4.04 µM; in [5], 3.86 µM; in [6] it was 3.59 µM; in test [7], 3.21 µM. Further, the values for the TGI in test [8] and in test [9] were 3.28 µM and 3.12 µM, respectively.
As to `CCOC(=O)Nc1cc(-c2ccc(C)c(NS(C)(=O)=O)c2)nn2c(C)nnc12`, the GI50 in test [1] is 2.64 µM; in test [3], 1.11 µM; in test [4], 2.04 µM; in test [5], 1.26 µM; in [6], 1.59 µM; in test [7], 2.59 µM. The GI50 in [8] is 2.64 µM; in [9], 1.86 µM; in [10], 2.45 µM. Moreover, the TGI in test [1] is greater than 100 µM; in [3] it was greater than 100 µM; in [4] it was greater than 100 µM; in test [5], 10.3 µM; in test [6], 3.37 µM; in test [7] it was 12.9 µM. Further, the TGI in test [8] is 31.3 µM; in test [9], greater than 100 µM; in test [10] it was 9.94 µM.
Consider `C[C@H]1CCC2C(CN3CCCCC3)C(=O)OC2[C@]2(C)C(=O)CC(N3CCCCC3)C12O` (stereo partly drawn), for which the TGI in test [1] is 22.2 µM; in [2] it was 24.5 µM; in test [3], 13.1 µM; in test [4] it was 32.6 µM; in test [6] it was 18.2 µM; in test [7] it was 4.31 µM. The TGI in test [8] was 22.6 µM; in test [9] it was 7.93 µM; in [10], 10.9 µM.

Values taken from PubChem BioAssay (NCI).
